According to ChEMBL document CHEMBL1150351, “Design, synthesis, and biological evaluation of new-generation taxoids” (J Med Chem, 2008):

Experiments:
[1] = Cytotoxicity against multidrug resistant Pgp expressing human LCC6 cells after 72 hrs by sulforhodamine B test; assay type: functional, cell-based; conditions: LCC-6, 72 h
[2] = Cytotoxicity against Pgp deficient human LCC6 cells after 72 hrs by sulforhodamine B test; assay type: functional, cell-based; conditions: C6, 72 h
[3] = tested on: MCF7; assay: Resistance index, Ratio of IC50 for multidrug resistant Pgp expressing human NCI/ADR cells to IC50 for Pgp deficient human MCF7 cells; assay type: functional; parameters: reference not given here
[4] = tested on: C6; assay: Resistance index, Ratio of IC50 for multidrug resistant Pgp expressing human LCC6 cells to IC50 for Pgp deficient human LCC6 cells; assay type: functional; parameters: reference not given here
[5] = tested on: MCF7; assay: Cytotoxicity against Pgp deficient human MCF7 cells after 72 hrs by sulforhodamine B test; assay type: functional, cell-based; conditions: MCF7, 72 h
[6] = Cytotoxicity against multidrug resistant Pgp expressing human NCI/ADR cells after 72 hrs by sulforhodamine B test; assay type: functional, cell-based; conditions: NCI/ADR-RES

In the case of `CCC(=O)O[C@H]1C(=O)[C@@]2(C)[C@H]([C@H](OC(=O)c3cccc(OC)c3)[C@]3(O)C[C@H](OC(=O)[C@H](O)[C@H](C=C(C)C)NC(=O)C4CCC4)C(C)=C1C3(C)C)[C@]1(OC(C)=O)CO[C@@H]1C[C@@H]2O`, the IC50 [1] is reported as 15 nM, the IC50 [2] is reported as 1.6 nM and the “Ratio IC50” value [3] is reported as 11. The “Ratio IC50” value [4] was 9.4, the IC50 [5] was 0.8 nM and the IC50 [6] was 8.8 nM.

With `CCC(=O)O[C@H]1C(=O)[C@@]2(C)[C@H]([C@H](OC(=O)c3ccccc3)[C@]3(O)C[C@H](OC(=O)[C@H](O)[C@H](C=C(C)C)NC(=O)OC4CCCCC4)C(C)=C1C3(C)C)[C@]1(OC(C)=O)CO[C@@H]1C[C@@H]2O` the IC50 [1] was 15 nM, the IC50 [2] was 1.2 nM and the “Ratio IC50” value [3] was 6.4. The “Ratio IC50” value [4] was 13, the IC50 [5] was 1.4 nM and the IC50 [6] was 8.9 nM.

In the case of `CCC(=O)O[C@H]1C(=O)[C@@]2(C)[C@H]([C@H](OC(=O)c3cccc(OC)c3)[C@]3(O)C[C@H](OC(=O)[C@H](O)[C@H](C=C(C)C)NC(=O)C4CC4)C(C)=C1C3(C)C)[C@]1(OC(C)=O)CO[C@@H]1C[C@@H]2O`, the IC50 [1] is reported as 17.2 nM, the IC50 [2] is reported as 1.1 nM and the “Ratio IC50” value [3] is reported as 15.6. For the same molecule, the “Ratio IC50” value [4] was 16, the IC50 [5] was 0.5 nM and the IC50 [6] was 7.8 nM.

For `CCC(=O)O[C@H]1C(=O)[C@@]2(C)[C@H]([C@H](OC(=O)c3cccc(OC)c3)[C@]3(O)C[C@H](OC(=O)[C@H](O)[C@H](C=C(C)C)NC(=O)C4CCCC4)C(C)=C1C3(C)C)[C@]1(OC(C)=O)CO[C@@H]1C[C@@H]2O`, the IC50 [1] was 11 nM, the IC50 [2] was 1.1 nM and the “Ratio IC50” value [3] was 32. The “Ratio IC50” value [4] was 10, the IC50 [5] was 0.3 nM and the IC50 [6] was 9.5 nM.

With `CCC(=O)O[C@H]1C(=O)[C@@]2(C)[C@H]([C@H](OC(=O)c3ccccc3)[C@]3(O)C[C@H](OC(=O)[C@H](O)[C@H](CC(C)C)NC(=O)C4CCCC4)C(C)=C1C3(C)C)[C@]1(OC(C)=O)CO[C@@H]1C[C@@H]2O` the IC50 [1] was 64 nM, the IC50 [2] was 6.3 nM and the “Ratio IC50” value [3] was 12. For the same molecule, the “Ratio IC50” value [4] was 10, the IC50 [5] was 2.3 nM and the IC50 [6] was 29 nM.

In the case of `CCC(=O)O[C@H]1C(=O)[C@@]2(C)[C@H]([C@H](OC(=O)c3ccccc3)[C@]3(O)C[C@H](OC(=O)[C@H](O)[C@H](C=C(C)C)NC(=O)C4=CCCC4)C(C)=C1C3(C)C)[C@]1(OC(C)=O)CO[C@@H]1C[C@@H]2O`, the IC50 [1] is reported as 14 nM, the IC50 [2] is reported as 1.2 nM and the “Ratio IC50” value [3] is reported as 15. The “Ratio IC50” value [4] was 12, the IC50 [5] was 0.4 nM and the IC50 [6] was 6 nM.

With `CCC(=O)O[C@H]1C(=O)[C@@]2(C)[C@H]([C@H](OC(=O)c3ccccc3)[C@]3(O)C[C@H](OC(=O)[C@H](O)[C@H](CC(C)C)NC(=O)C4CCCCC4)C(C)=C1C3(C)C)[C@]1(OC(C)=O)CO[C@@H]1C[C@@H]2O` the IC50 [1] was 32 nM, the IC50 [2] was 5.8 nM and the “Ratio IC50” value [3] was 13. For the same molecule, the Ratio IC50 [4] was 5.5, the IC50 [5] was 1.5 nM and the IC50 [6] was 19 nM.

With `CCC(=O)O[C@H]1C(=O)[C@@]2(C)[C@H]([C@H](OC(=O)c3ccccc3)[C@]3(O)C[C@H](OC(=O)[C@H](O)[C@H](C=C(C)C)NC(=O)C4=CCCCC4)C(C)=C1C3(C)C)[C@]1(OC(C)=O)CO[C@@H]1C[C@@H]2O` the IC50 [1] was 11 nM, the IC50 [2] was 1.2 nM and the “Ratio IC50” value [3] was 13. The “Ratio IC50” value [4] was 9.2, the IC50 [5] was 0.3 nM and the IC50 [6] was 3.8 nM.

In the case of `CCC(=O)O[C@H]1C(=O)[C@@]2(C)[C@H]([C@H](OC(=O)c3ccccc3)[C@]3(O)C[C@H](OC(=O)[C@H](O)[C@H](C=C(C)C)NC(=O)C4CCCC4)C(C)=C1C3(C)C)[C@]1(OC(C)=O)CO[C@@H]1C[C@@H]2O`, the IC50 [1] is reported as 19 nM, the IC50 [2] is reported as 1.1 nM and the “Ratio IC50” value [3] is reported as 20. The “Ratio IC50” value [4] was 17, the IC50 [5] was 1.1 nM and the IC50 [6] was 22 nM.

In the case of `CCC(=O)O[C@H]1C(=O)[C@@]2(C)[C@H]([C@H](OC(=O)c3ccccc3)[C@]3(O)C[C@H](OC(=O)[C@H](O)[C@H](CC(C)C)NC(=O)OC4CCCCC4)C(C)=C1C3(C)C)[C@]1(OC(C)=O)CO[C@@H]1C[C@@H]2O`, the IC50 [1] is reported as 18 nM, the IC50 [2] is reported as 4.8 nM and the “Ratio IC50” value [3] is reported as 10. The “Ratio IC50” value [4] was 3.8, the IC50 [5] was 1.4 nM and the IC50 [6] was 14 nM.

With `CCC(=O)O[C@H]1C(=O)[C@@]2(C)[C@H]([C@H](OC(=O)c3cccc(OC)c3)[C@]3(O)C[C@H](OC(=O)[C@H](O)[C@H](CC(C)C)NC(=O)OC4CCCC4)C(C)=C1C3(C)C)[C@]1(OC(C)=O)CO[C@@H]1C[C@@H]2O` the IC50 [1] was 2.6 nM, the IC50 [2] was 0.76 nM and the “Ratio IC50” value [3] was 6.9. For the same molecule, the “Ratio IC50” value [4] was 3.4, the IC50 [5] was 0.17 nM and the IC50 [6] was 1.18 nM.

With `CCC(=O)O[C@H]1C(=O)[C@@]2(C)[C@H]([C@H](OC(=O)c3cccc(OC)c3)[C@]3(O)C[C@H](OC(=O)[C@H](O)[C@H](CC(C)C)NC(=O)C4CC4)C(C)=C1C3(C)C)[C@]1(OC(C)=O)CO[C@@H]1C[C@@H]2O` the IC50 [1] was 13 nM, the IC50 [2] was 0.6 nM and the “Ratio IC50” value [3] was 30. The “Ratio IC50” value [4] was 22, the IC50 [5] was 0.4 nM and the IC50 [6] was 11.8 nM.

In the case of `COc1cccc(C(=O)O[C@H]2[C@@H]3[C@]4(OC(C)=O)CO[C@@H]4C[C@H](O)[C@@]3(C)C(=O)[C@H](OC(=O)OCc3ccccc3)C3=C(C)[C@@H](OC(=O)[C@H](O)[C@H](C=C(C)C)NC(=O)OC(C)(C)C)C[C@]2(O)C3(C)C)c1`, the IC50 [1] is reported as 1.8 nM, the IC50 [2] is reported as 1.2 nM and the “Ratio IC50” value [3] is reported as 7.5. For the same molecule, the “Ratio IC50” value [4] was 1.5, the IC50 [5] was 0.2 nM and the IC50 [6] was 1.5 nM.

For `CCC(=O)O[C@H]1C(=O)[C@@]2(C)[C@H]([C@H](OC(=O)c3cccc(OC)c3)[C@]3(O)C[C@H](OC(=O)[C@H](O)[C@H](CC(C)C)NC(=O)C4CCCCC4)C(C)=C1C3(C)C)[C@]1(OC(C)=O)CO[C@@H]1C[C@@H]2O`, the IC50 [1] was 12 nM, the IC50 [2] was 1 nM and the “Ratio IC50” value [3] was 9.3. For the same molecule, the “Ratio IC50” value [4] was 12, the IC50 [5] was 0.7 nM and the IC50 [6] was 6.5 nM.

With `CCC(=O)O[C@H]1C(=O)[C@@]2(C)[C@H]([C@H](OC(=O)c3cccc(OC)c3)[C@]3(O)C[C@H](OC(=O)[C@H](O)[C@H](C=C(C)C)NC(=O)OC4CCCCC4)C(C)=C1C3(C)C)[C@]1(OC(C)=O)CO[C@@H]1C[C@@H]2O` the IC50 [1] was 14.8 nM, the IC50 [2] was 1.23 nM and the “Ratio IC50” value [3] was 9.7. The “Ratio IC50” value [4] was 12, the IC50 [5] was 1.44 nM and the IC50 [6] was 14 nM.

In the case of `CCC(=O)O[C@H]1C(=O)[C@@]2(C)[C@H]([C@H](OC(=O)c3ccccc3)[C@]3(O)C[C@H](OC(=O)[C@H](O)[C@H](C=C(C)C)NC(=O)C4CCCCC4)C(C)=C1C3(C)C)[C@]1(OC(C)=O)CO[C@@H]1C[C@@H]2O`, the IC50 [1] is reported as 13 nM, the IC50 [2] is reported as 1.3 nM and the “Ratio IC50” value [3] is reported as 18. For the same molecule, the “Ratio IC50” value [4] was 10, the IC50 [5] was 1 nM and the IC50 [6] was 18 nM.

For `CCC(=O)O[C@H]1C(=O)[C@@]2(C)[C@H]([C@H](OC(=O)c3ccccc3)[C@]3(O)C[C@H](OC(=O)[C@H](O)[C@H](C=C(C)C)NC(=O)C4CCC4)C(C)=C1C3(C)C)[C@]1(OC(C)=O)CO[C@@H]1C[C@@H]2O`, the IC50 [1] was 34 nM, the IC50 [2] was 1.3 nM and the “Ratio IC50” value [3] was 34. The “Ratio IC50” value [4] was 26, the IC50 [5] was 1.2 nM and the IC50 [6] was 41 nM.

In the case of `COc1cccc(C(=O)O[C@H]2[C@@H]3[C@]4(OC(C)=O)CO[C@@H]4C[C@H](O)[C@@]3(C)C(=O)[C@H](OC(=O)c3ccccc3OC)C3=C(C)[C@@H](OC(=O)[C@H](O)[C@H](C=C(C)C)NC(=O)OC(C)(C)C)C[C@]2(O)C3(C)C)c1`, the IC50 [1] is reported as 0.9 nM, the IC50 [2] is reported as 0.4 nM and the “Ratio IC50” value [3] is reported as 3. The “Ratio IC50” value [4] was 2.3, the IC50 [5] was 1.1 nM and the IC50 [6] was 3.3 nM.
